# From BindingDB's records for patent US20230357253 (The Scripps Research Institute, 2023)
# Target: Stimulator of interferon genes protein (Homo sapiens, UniProt Q86WV6)
# Test: WT STING Binding Assay
# Experimental: Upon proximity of the two dyes, the excitation of the donor by the flash lamp on the PHERAstar FSX plate reader triggers a Fluorescence Resonance Energy Transfer (FRET) towards the acceptor, which in turn fluoresces at 665 nm. To assess the ability of the synthetic small molecule STING ligands to bind to human STING, a competitive assay format was applied. A 10-point titration of each of the synthetic ligands in 5 uL were transferred into a 384 well plate, followed by 20 uL of assay buffer containing the 6×His-tagged human STING protein and labeled 2′3′cGAMP ligand and incubated for three hours at room temperature. The raw values obtained from the PHERAstar were used to calculate the reported IC50 values (the signal is inversely proportional to the binding of the synthetic ligand) through curve fitting in Genedata. The percent inhibition was calculated based upon the maximal amount of binding by synthetic compound versus the maximum binding of unlabeled 2′3′ cGAMP which was used as a control in each assay.
# Sequence of Stimulator of interferon genes protein (Q86WV6 whole entry): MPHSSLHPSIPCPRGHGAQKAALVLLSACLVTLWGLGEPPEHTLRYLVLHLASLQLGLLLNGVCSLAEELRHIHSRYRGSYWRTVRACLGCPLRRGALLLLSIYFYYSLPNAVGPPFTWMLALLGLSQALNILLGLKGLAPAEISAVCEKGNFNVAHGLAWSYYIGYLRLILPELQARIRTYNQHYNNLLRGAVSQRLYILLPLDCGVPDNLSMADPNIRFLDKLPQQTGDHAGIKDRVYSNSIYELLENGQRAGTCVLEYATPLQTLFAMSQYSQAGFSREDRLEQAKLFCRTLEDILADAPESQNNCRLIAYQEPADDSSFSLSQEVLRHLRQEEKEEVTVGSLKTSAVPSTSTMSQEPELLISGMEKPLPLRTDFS
row,SMILES,IC50
1,"O=C(Nc1c(C(=O)O)cc(F)c(OCCCCOc2c(F)cc(C(=O)O)c(NC(=O)c3ccc(-n4ccnc4)nn3)c2F)c1F)c1ccc(O)nn1 [US20230357253, Compound 39]",> 1000 nM
2,"O=C(Nc1cc(CCCc2cc(NC(=O)c3ccc(-n4ccnc4)nn3)c(C(=O)O)cc2F)c(F)cc1C(=O)O)c1ccc(-n2ccnc2)nn1 [US20230357253, Compound 3]",< 10 nM
3,"O=C(Nc1cc(OCCCCOc2ccc(NC(=O)c3ccc4nnnn4n3)c(C(=O)O)c2)ccc1C(=O)O)c1ccc2nnnn2n1 [US20230357253, Compound 27]",> 1000 nM
4,"O=C(Nc1cc(OCCc2cc(C(=O)O)c(NC(=O)c3ccc(-n4ccnc4)nn3)cc2F)c(F)cc1C(=O)O)c1ccc(-n2ccnc2)nn1 [US20230357253, Compound 144]",< 10 nM
5,"O=C(Nc1ccc(OCOc2ccc(NC(=O)c3ccc(-n4ccnc4)nn3)c(C(=O)O)c2)cc1C(=O)O)c1ccc(-n2ccnc2)nn1 [US20230357253, Compound 138]",> 1000 nM
6,"O=C(Nc1cc(OCCOc2cc(C(=O)O)c(NC(=O)c3ccc4nnnn4n3)cc2F)ccc1C(=O)O)c1ccc2nnnn2n1 [US20230357253, Compound 26]",> 1000 nM
7,"O=C(Nc1cc(OCCCOc2cc(NC(=O)c3ccc(-n4ccnc4)nn3)c(C(=O)O)cc2F)c(F)cc1C(=O)O)c1ccc(-n2ccnc2)nn1 [US20230357253, Compound 168]",< 10 nM
8,"O=C(Nc1cc(CCCc2ccc(C(=O)O)c(NC(=O)c3ccc4nnnn4n3)c2)ccc1C(=O)O)c1ccc2nnnn2n1 [US20230357253, Compound 14]",> 1000 nM
9,"Cn1nccc1-c1ccc(C(=O)Nc2cc(OCCCOc3cc(NC(=O)c4ccc(-c5ccnn5C)nn4)c(C(=O)O)cc3F)c(F)cc2C(=O)O)nn1 [US20230357253, Compound 206]",> 1000 nM
10,"O=C(Nc1cc(CCOc2cc(C(=O)O)c(NC(=O)c3ccc(-n4ccnc4)nn3)cc2F)c(F)cc1C(=O)O)c1ccc(-n2ccnc2)nn1 [US20230357253, Compound 141]",< 10 nM
11,"O=C(Nc1cc(F)c(CCCc2cc(NC(=O)c3ccc4nnnn4n3)c(C(=O)O)cc2F)cc1C(=O)O)c1ccc(-n2ccnc2)nn1 [US20230357253, Compound 94]",< 10 nM
12,"O=C(Nc1cc(CCCc2ccc(NC(=O)c3ccc4nnnn4n3)c(C(=O)O)c2)ccc1C(=O)O)c1ccc2nnnn2n1 [US20230357253, Compound 13]",> 1000 nM
13,"O=C(Nc1cc(CCCc2ccc(-c3nn[nH]n3)c(NC(=O)c3ccc(-n4ccnc4)nn3)c2)c(F)cc1C(=O)O)c1ccc(-n2ccnc2)nn1 [US20230357253, Compound 148]",> 1000 nM
14,"COc1cc(C(=O)O)c(NC(=O)c2ccc(-n3ccnc3)nn2)cc1OCCc1cc(C(=O)O)c(NC(=O)c2ccc3nnnn3n2)cc1Cl [US20230357253, Compound 6]",< 10 nM
15,"CC(Cc1cc(NC(=O)c2ccc(-n3ccnc3)nn2)c(C(=O)O)cc1F)Cc1cc(NC(=O)c2ccc(-n3ccnc3)nn2)c(C(=O)O)cc1F [US20230357253, Compound 194]",< 10 nM
16,"O=C(Nc1cc(OCCCCOc2ccc(C(=O)O)c(NC(=O)c3ccc(-n4ccnc4)nn3)c2)ccc1C(=O)O)c1ccc(O)nn1 [US20230357253, Compound 35]",> 1000 nM
17,"O=C(Nc1cc(OCCCCOc2ccc(C(=O)O)c(NC(=O)c3ccc4nnnn4n3)c2)ccc1C(=O)O)c1ccc2nnnn2n1 [US20230357253, Compound 32]",> 1000 nM
18,"O=C(Nc1cc(OCCOc2ccc(NC(=O)c3ccc4nnnn4n3)c(C(=O)O)c2)ccc1C(=O)O)c1ccc2nnnn2n1 [US20230357253, Compound 31]",> 1000 nM
19,"O=C(Nc1cc(OCCCOc2ccc(NC(=O)c3ccc4nnnn4n3)c(C(=O)O)c2)ccc1C(=O)O)c1ccc2nnnn2n1 [US20230357253, Compound 25]",> 1000 nM
20,"COc1cc(C(=O)O)c(NC(=O)c2ccc(-n3ccnc3)nn2)cc1CCCc1cc(NC(=O)c2ccc(-n3ccnc3)nn2)c(C(=O)O)cc1F [US20230357253, Compound 59]",< 10 nM
21,"O=C(Nc1cc(CCc2cc(C(=O)O)c(NC(=O)c3ccc(-n4ccnc4)nn3)cc2F)c(F)cc1C(=O)O)c1ccc(-n2ccnc2)nn1 [US20230357253, Compound 180]",> 1000 nM
22,"O=C(Nc1cc(CCCc2cc(C(=O)O)c(NC(=O)c3ccc4nnnn4n3)cc2F)c(N2CCOCC2)cc1C(=O)O)c1ccc(-n2ccnc2)nn1 [US20230357253, Compound 108]",> 1000 nM
23,"O=C(Nc1cc(OCCCOc2cc(C(=O)O)c(NC(=O)c3ccc4nnnn4n3)cc2F)c(F)cc1C(=O)O)c1ccc2nnnn2n1 [US20230357253, Compound 33]",> 1000 nM
24,"O=C(Nc1cc(CCCc2cc(NC(=O)c3ccc(-n4ccnc4)nn3)c(C(=O)O)s2)c(F)cc1C(=O)O)c1ccc(-n2ccnc2)nn1 [US20230357253, Compound 164]",< 10 nM

row,SMILES,IC50
1,"COc1nc(C(=O)O)c(NC(=O)c2ccc(-n3ccnc3)nn2)cc1CCCc1cc(NC(=O)c2ccc(-n3ccnc3)nn2)c(C(=O)O)cc1F [US20230357253, Compound 134]",< 10 nM
2,"O=C(Nc1cc(CCCc2cc(NC(=O)c3ccc(-n4ccnc4)nn3)c(C(=O)O)cc2F)c(F)cc1C(=O)O)c1ccc(N2CCOCC2)nn1 [US20230357253, Compound 212]",> 1000 nM
3,"O=C(Nc1cc(CSCc2cc(NC(=O)c3ccc(-n4ccnc4)nn3)c(C(=O)O)cc2F)c(F)cc1C(=O)O)c1ccc(-n2ccnc2)nn1 [US20230357253, Compound 132]",< 10 nM
4,"O=C(Nc1cc(CCCc2cc(C(=O)O)c(NC(=O)c3ccc(-n4ccnc4)nn3)cc2F)c(F)cc1C(=O)O)c1ccc(-n2ccnc2)nn1 [US20230357253, Compound 70]",< 10 nM
5,"O=C(Nc1cc(CCCc2cc(NC(=O)c3ccc4nnnn4n3)c(C(=O)O)cc2F)c(F)cc1C(=O)O)c1ccc(-n2ccnc2)nn1 [US20230357253, Compound 67]",< 10 nM
6,"O=C(Nc1cc(CCCOc2cc(NC(=O)c3ccc(-n4ccnc4)nn3)c(C(=O)O)cc2F)c(F)cc1C(=O)O)c1ccc(-n2ccnc2)nn1 [US20230357253, Compound 125]",< 10 nM
7,"O=C(Nc1cc(OCCCCOc2cc(NC(=O)c3ccc(-n4ccnc4)nn3)c(C(=O)O)cc2F)ccc1C(=O)O)c1ccc(-n2ccnc2)nn1 [US20230357253, Compound 19]",< 10 nM
8,"O=C(Nc1cc(CCCc2cc(NC(=O)c3ccc(-n4ccnc4)nn3)c(C(=O)O)cc2F)c(F)cc1C(=O)O)c1ccc(-c2cn[nH]c2)nn1 [US20230357253, Compound 159]",< 10 nM
9,"O=C(Nc1cc(CCCc2cc(NC(=O)c3ccc(-n4ccnc4)nn3)c(C(=O)O)cc2Cl)ccc1C(=O)O)c1ccc(-n2ccnc2)nn1 [US20230357253, Compound 66]",< 10 nM
10,"Cn1nccc1-c1ccc(C(=O)Nc2cc(CCCc3cc(NC(=O)c4ccc(-n5ccnc5)nn4)c(C(=O)O)cc3F)c(F)cc2C(=O)O)nn1 [US20230357253, Compound 207]",> 1000 nM
11,"O=C(O)Cc1cc(F)c(CCOc2cc(NC(=O)c3ccc(-n4ccnc4)nn3)c(C(=O)O)cc2F)cc1NC(=O)c1ccc(-n2ccnc2)nn1 [US20230357253, Compound 133]",> 1000 nM
12,"O=C(Nc1cc(CCOc2cc(NC(=O)c3ccc(-c4cn[nH]c4)nn3)c(C(=O)O)cc2F)c(F)cc1C(=O)O)c1ccc(-c2cn[nH]c2)nn1 [US20230357253, Compound 4]",< 10 nM
13,"O=C(Nc1cc(CCCc2cc(NC(=O)c3ccc(-n4ccnc4)nn3)c(C(=O)O)cc2Cl)c(F)cc1C(=O)O)c1ccc(-n2ccnc2)nn1 [US20230357253, Compound 174]",< 10 nM
14,"COC(=O)c1ccc(OCCCCOc2ccc(C(=O)O)c(NC(=O)c3ccc(-n4ccnc4)nn3)c2)cc1NC(=O)c1ccc2nnnn2n1 [US20230357253, Compound 37]",> 1000 nM
15,"O=C(Nc1cc(CCCc2cc(C(=O)O)c(NC(=O)c3ccc4nnnn4n3)cc2F)c(F)cc1C(=O)O)c1ccc(-n2ccnc2)nn1 [US20230357253, Compound 90]",< 10 nM
16,"O=C(Nc1c(C(=O)O)cc(F)c(OCCCCOc2c(F)cc(C(=O)O)c(NC(=O)c3ccc(-n4ccnc4)nn3)c2F)c1F)c1ccc(-n2ccnc2)nn1 [US20230357253, Compound 38]",> 1000 nM
17,"O=C(Nc1cc(CCCc2cc(NC(=O)c3ccc(-n4ccnc4)nn3)c(C(=O)O)cc2F)c(F)cc1C(=O)O)c1ccc(N2CCNCC2)nn1 [US20230357253, Compound 214]",> 1000 nM
18,"O=C(Nc1cc(CCCc2cc(NC(=O)c3ccc(-n4ccnc4)nn3)c(C(=O)O)cc2F)ccc1C(=O)O)c1ccc(-n2ccnc2)nn1 [US20230357253, Compound 68]",< 10 nM
19,"O=C(Nc1cc(CCSc2cc(NC(=O)c3ccc(-n4ccnc4)nn3)c(C(=O)O)cc2F)c(F)cc1C(=O)O)c1ccc(-n2ccnc2)nn1 [US20230357253, Compound 195]",< 10 nM
20,"O=C(Nc1cc(OCCc2cc(C(=O)O)c(NC(=O)c3ccc4nnnn4n3)cc2F)c(F)cc1C(=O)O)c1ccc(-n2ccnc2)nn1 [US20230357253, Compound 169]",< 10 nM
21,"O=C(Nc1cc(CCOc2cc(NC(=O)c3ccc(-n4ccnc4)nn3)c(C(=O)O)cc2F)c(F)cc1C(=O)O)c1ccc(-c2cn[nH]c2)nn1 [US20230357253, Compound 205]",< 10 nM
22,"O=C(Nc1cc(OCCCCOc2cnc(C(=O)O)c(NC(=O)c3ccc(-n4ccnc4)nn3)c2)cnc1C(=O)O)c1ccc(-n2ccnc2)nn1 [US20230357253, Compound 45]",> 1000 nM
23,"O=C(Nc1cc(CCCCc2cc(C(=O)O)c(NC(=O)c3ccc(-n4ccnc4)nn3)cc2F)c(F)cc1C(=O)O)c1ccc(-n2ccnc2)nn1 [US20230357253, Compound 127]",< 10 nM
24,"O=C(Nc1cc(CC[S+]([O-])c2cc(NC(=O)c3ccc(-n4ccnc4)nn3)c(C(=O)O)cc2F)c(F)cc1C(=O)O)c1ccc(-n2ccnc2)nn1 (stereo not drawn) [US20230357253, Compound 200]",> 1000 nM
